Experimental data from patent publication US20250243210A1, “CRBN E3 LIGASE LIGAND COMPOUND, PROTEIN DEGRADER DEVELOPED BASED THEREON AND THEIR APPLICATIONS” (GLUETACS THERAPEUTICS (SHANGHAI) CO., LTD., priority 2021, published 2025).
Read-outs that look alike come from different tables or passages of the source.

Legend:
LNcap = experiment: CCK-8 tumor cell proliferation, LNcap; type: cell-based, Human; conditions: 96 h, read-out: IC50 for inhibiting the proliferation of tumor cells, LNcap
Method: (§1) Determination of half inhibitory concentration (IC50) of the compounds against tumor cells:
(§2) The tumor cells used herein were cultured in a cell culture medium listed in table 6 at 37° C. in an incubator with 5% CO2. Prior to experimentation, all cells used were correctly identified by STR profiling, and tested negative for mycoplasma through routine screenings.
(§3) IC50 values of the compounds of the present disclosure (including the compounds in Table 4 and compounds of examples 1-72) were measured using the Meilun Cell Counting Kit-S kit from Dalian Meilun Biotech Co., Ltd. Assay details are as follows: tumor cells were seeded in a 96-well plate at a density listed in Table 7. After 24 h, 100 μL of the inoculated cells were treated with 0.5 μL of the compounds of the present disclosure (including the compounds in Table 4 and compounds of examples 1-72) at 10 different successively decreasing concentrations (starting at the highest concentration of 10 μM; 5-fold serial dilutions). After the cells were treated with the compounds of the present disclosure for a period of time (the treatment times listed in Table 7), the cell viability detection reagent was added to the culture medium for cell viability assessment according to the instructions provided with the CCK-8 kit. […] The growth inhibition of the compounds of the present disclosure on cells was plotted by Prism Graphpad software, and the IC50 values of the compounds of the present disclosure were calculated therefrom.

MM.1R = experiment: CCK-8 tumor cell proliferation, MM.1R; type: cell-based; conditions: 72 h, read-out: IC50 for inhibiting the proliferation of tumor cells, MM.1R
Method: as §1
(§4) The tumor cells used herein were cultured in a cell culture medium listed in table 6 at 37° C. in an incubator with 5% CO2.
(§5) After the cells were treated with the compounds of the present disclosure for a period of time (the treatment times listed in Table 7), the cell viability detection reagent was added to the culture medium for cell viability assessment according to the instructions provided with the CCK-8 kit. […] The growth inhibition of the compounds of the present disclosure on cells was plotted by Prism Graphpad software, and the IC50 values of the compounds of the present disclosure were calculated therefrom.

MGC80-3 = experiment: CCK-8 tumor cell proliferation, MGC80-3; type: cell-based, Human; conditions: read-out: IC50 for inhibiting the proliferation of tumor cells, MGC80-3
Method: as §1, §2, §3

Hep3B2.1-7 = experiment: CCK-8 tumor cell proliferation, Hep3B2.1-7; type: cell-based, Human; conditions: Hep3B2.1-7, 96 h, read-out: IC50 for inhibiting the proliferation of tumor cells, Hep3B2.1-7
Method: as §1, §2, §3

DU-145 = experiment: CCK-8 tumor cell proliferation, DU-145; type: cell-based, Human; conditions: DU-145, 96 h, read-out: IC50 for inhibiting the proliferation of tumor cells, DU-145
Method: as §1, §4, §5

WSU-DLCL2 = experiment: CCK-8 tumor cell proliferation, WSU-DLCL2; type: cell-based, Human; conditions: read-out: IC50 for inhibiting the proliferation of tumor cells, WSU-DLCL2
Method: as §1, §4, §5

[1] = target: human Cereblon WT GST-tagged protein (Homo sapiens (Human), UniProt Q96SW2); experiment: CRBN binding, HTRF (CEREBLON BINDING kit)
Method: Determination of CRBN-Binding Affinity of Compounds
The CEREBLON BINDING kits (specification: 10,000 tests; product number: Catalog #64BDCRBNPEH; CISBIO company) was used to determine the CRBN binding ability of the compounds to be tested through a HTRF method (homogeneous time-resolved fluorescence). The specific methods are as follows: • 1. […] Then, 2.5 μL of (human Cereblon WT GST-tagged protein) solution was added to each well. Finally, 5 μL of the uniformly mixed thalidomide-Red reagent and GST Eu antibody working solution were added to each of the above wells. […] The blank control wells were sequentially added with 2.5 μL of diluent #9 (1×) solution, 2.5 μL of ligand binding buffer, and 5 μL of uniformly mixed thalidomide-Red reagent and GST Eu antibody working solution. • 4. […] The corresponding CRBN binding inhibition rate was calculated using the following method: […]

[2] = Homo sapiens, MGC-803, MGC80-3, 96 h
[3] = Homo sapiens, WSUDLCL2, WSU-DLCL2, 96 h

human Cereblon WT GST-tagged protein, sequence (Q96SW2 whole entry): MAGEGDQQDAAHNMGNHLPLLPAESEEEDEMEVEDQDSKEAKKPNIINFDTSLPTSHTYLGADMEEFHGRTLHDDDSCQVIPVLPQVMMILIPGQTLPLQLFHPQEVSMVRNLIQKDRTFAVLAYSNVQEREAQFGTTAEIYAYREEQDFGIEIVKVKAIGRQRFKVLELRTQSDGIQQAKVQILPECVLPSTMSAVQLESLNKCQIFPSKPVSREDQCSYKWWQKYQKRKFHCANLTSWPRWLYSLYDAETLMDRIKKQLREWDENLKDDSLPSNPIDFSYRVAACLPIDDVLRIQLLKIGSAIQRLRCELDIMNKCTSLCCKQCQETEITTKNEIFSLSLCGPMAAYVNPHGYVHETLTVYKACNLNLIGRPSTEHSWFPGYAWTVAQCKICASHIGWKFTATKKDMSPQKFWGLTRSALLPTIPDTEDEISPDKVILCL

SMILES	IC50 (LNcap; Homo sapiens)	IC50 (MM.1R)	IC50 (MGC80-3; [2])	IC50 (Hep3B2.1-7; Homo sapiens)	IC50 (DU-145; Homo sapiens)	IC50 (WSU-DLCL2; [3])	IC50 [1]	IC50 (LNcap)	IC50 (MGC80-3; MGC80-3, 96 h)	IC50 (DU-145)	IC50 (WSU-DLCL2; WSU-DLCL2, 96 h)	IC50 (Hep3B2.1-7)
CC1(C)[C@H](NC(=O)c2ccc(N3CCC(CN4CC5CCC(C4)N5c4ccc5c(c4)C(=O)N(C4CCC(=O)NC4=O)C5=O)CC3)nc2)C(C)(C)[C@H]1Oc1ccc(C#N)c(Cl)c1 (stereo partly drawn) [GT-03425, N-((1r,3r)-3-(3-chloro-4-cyanophenoxy)-2,2,4,4-tetramethylcyclobutyl)-6-(4-((8-(2-(2,6-dioxopiperidin-3-yl)-1,3-dioxoisoindolin-5-yl)-3,8-diazabicyclo[3.2.1]octan-3-yl)methyl)piperidin-1-yl)nicotinamide]	50 to 100 nM	100 to 500 nM	≤ 50 nM	≤ 50 nM	500 to 1000 nM	50 to 100 nM						
O=C1CCC(N2C(=O)c3ccc(N4CC5CC(C4)N5)cc3C2=O)C(=O)N1 (stereo not drawn) [GT-03075, 5-(3,6-diazabicyclo[3.1.1]heptan-3-yl)-2-(2,6-dioxopiperidin-3-yl)isoindoline-1,3-dione]							5090 nM					
CC1(C)[C@H](NC(=O)c2ccc(N3CCC(CN4C5CC4CN(c4ccc6c(c4)C(=O)N(C4CCC(=O)NC4=O)C6=O)C5)CC3)nc2)C(C)(C)[C@H]1Oc1ccc(C#N)c(Cl)c1 (stereo partly drawn) [GT-03471, N-((1r,3r)-3-(3-chloro-4-cyanophenoxy)-2,2,4,4-tetramethylcyclobutyl)-6-(4-((3-(2-(2,6-dioxopiperidin-3-yl)-1,3-dioxoisoindolin-5-yl)-3,6-diazabicyclo[3.1.1]heptan-6-yl)methyl)piperidin-1-yl)nicotinamide]	500 to 1000 nM		100 to 500 nM	100 to 500 nM		1000 to 5000 nM						
N#Cc1ccc(OC2CCC(NC(=O)c3ccc(N4C5CC4CN(CC4CCN(c6cc7c(cc6F)C(=O)N(C6CCC(=O)NC6=O)C7=O)CC4)C5)nn3)CC2)cc1Cl (stereo not drawn) [GT-03451, N-((1r,4r)-4-(3-chloro-4-cyanophenoxy)cyclohexyl)-6-(3-((1-(2-(2,6-dioxopiperidin-3-yl)-6-fluoro-1,3-dioxoisoindolin-5-yl)piperidin-4-yl)methyl)-3,6-diazabicyclo[3.1.1]heptan-6-yl)pyridazine-3-carboxamide]		100 to 500 nM						100 to 500 nM	500 to 1000 nM	1000 to 5000 nM	100 to 500 nM	
N#Cc1ccc(OC2CCC(NC(=O)c3ccc(N4CCC(CN5C6CC5CN(c5cc7c(cc5F)C(=O)N(C5CCC(=O)NC5=O)C7=O)C6)CC4)nn3)CC2)cc1Cl (stereo not drawn) [GT-03487, N-((1r,4r)-4-(3-chloro-4-cyanophenoxy)cyclohexyl)-6-(4-((3-(2-(2,6-dioxopiperidin-3-yl)-6-fluoro-1,3-dioxoisoindolin-5-yl)-3,6-diazabicyclo[3.1.1]heptan-6-yl)methyl)piperidin-1-yl)pyridazine-3-carboxamide]		100 to 500 nM						100 to 500 nM	100 to 500 nM	1000 to 5000 nM	100 to 500 nM	
CC1(C)[C@H](NC(=O)c2ccc(N3CCC(CN4C5CCC4CN(c4cc6c(cc4F)C(=O)N(C4CCC(=O)NC4=O)C6=O)C5)CC3)nc2)C(C)(C)[C@H]1Oc1ccc(C#N)c(Cl)c1 (stereo partly drawn) [GT-03482, N-((1r,3r)-3-(3-chloro-4-cyanophenoxy)-2,2,4,4-tetramethylcyclobutyl)-6-(4-((3-(2-(2,6-dioxopiperidin-3-yl)-6-fluoro-1,3-dioxoisoindolin-5-yl)-3,8-diazabicyclo[3.2.1]octan-8-yl)methyl)piperidin-1-yl)nicotinamide]	50 to 100 nM	100 to 500 nM	50 to 100 nM	100 to 500 nM	100 to 500 nM	100 to 500 nM						
N#Cc1ccc(OC2CCC(NC(=O)c3ccc(N4CC5CCC(C4)N5CC4CCN(c5cc6c(cc5F)C(=O)N(C5CCC(=O)NC5=O)C6=O)CC4)nn3)CC2)cc1Cl (stereo not drawn) [GT-03450, N-((1r,4r)-4-(3-chloro-4-cyanophenoxy)cyclohexyl)-6-(8-((1-(2-(2,6-dioxopiperidin-3-yl)-6-fluoro-1,3-dioxoisoindolin-5-yl)piperidin-4-yl)methyl)-3,8-diazabicyclo[3.2.1]octan-3-yl)pyridazine-3-carboxamide]		100 to 500 nM						100 to 500 nM	100 to 500 nM	1000 to 5000 nM	500 to 1000 nM	
CC1(C)[C@H](NC(=O)c2ccc(N3CCC(CN4C5CC4CN(c4cc6c(cc4F)C(=O)N(C4CCC(=O)NC4=O)C6=O)C5)CC3)nc2)C(C)(C)[C@H]1Oc1ccc(C#N)c(Cl)c1 (stereo partly drawn) [GT-03404, N-((1r,3r)-3-(3-chloro-4-cyanophenoxy)-2,2,4,4-tetramethylcyclobutyl)-6-(4-((3-(2-(2,6-dioxopiperidin-3-yl)-6-fluoro-1,3-dioxoisoindolin-5-yl)-3,6-diazabicyclo[3.1.1]heptan-6-yl)methyl)piperidin-1-yl)nicotinamide]	500 to 1000 nM		100 to 500 nM	100 to 500 nM								
N#Cc1ccc(OC2CCC(NC(=O)c3ccc(N4CCC(CN5C6CC5CN(c5ccc7c(c5)C(=O)N(C5CCC(=O)NC5=O)C7=O)C6)CC4)nn3)CC2)cc1Cl (stereo not drawn) [GT-03490, N-((1r,4r)-4-(3-chloro-4-cyanophenoxy)cyclohexyl)-6-(4-((3-(2-(2,6-dioxopiperidin-3-yl)-1,3-dioxoisoindolin-5-yl)-3,6-diazabicyclo[3.1.1]heptan-6-yl)methyl)piperidin-1-yl)pyridazine-3-carboxamide]		100 to 500 nM						100 to 500 nM	100 to 500 nM	1000 to 5000 nM	100 to 500 nM	
CC1(C)[C@H](NC(=O)c2ccc(N3CCC(CN4C5CCC4CN(c4ccc6c(c4)C(=O)N(C4CCC(=O)NC4=O)C6=O)C5)CC3)nc2)C(C)(C)[C@H]1Oc1ccc(C#N)c(Cl)c1 (stereo partly drawn) [GT-03426, N-((1r,3r)-3-(3-chloro-4-cyanophenoxy)-2,2,4,4-tetramethylcyclobutyl)-6-(4-((3-(2-(2,6-dioxopiperidin-3-yl)-1,3-dioxoisoindolin-5-yl)-3,8-diazabicyclo[3.2.1]octan-8-yl)methyl)piperidin-1-yl)nicotinamide]	50 to 100 nM	100 to 500 nM	50 to 100 nM	≤ 50 nM								
N#Cc1ccc(OC2CCC(NC(=O)c3ccc(N4CCC(CN5C6CCC5CN(c5ccc7c(c5)C(=O)N(C5CCC(=O)NC5=O)C7=O)C6)CC4)nn3)CC2)cc1Cl (stereo not drawn) [GT-03489, N-((1r,4r)-4-(3-chloro-4-cyanophenoxy)cyclohexyl)-6-(4-((3-(2-(2,6-dioxopiperidin-3-yl)-1,3-dioxoisoindolin-5-yl)-3,8-diazabicyclo[3.2.1]octan-8-yl)methyl)piperidin-1-yl)pyridazine-3-carboxamide]		500 to 1000 nM						100 to 500 nM	100 to 500 nM	1000 to 5000 nM	100 to 500 nM	100 to 500 nM
CC1(C)[C@H](NC(=O)c2ccc(N3CCC(CN4CC5CC(C4)N5c4ccc5c(c4)C(=O)N(C4CCC(=O)NC4=O)C5=O)CC3)nc2)C(C)(C)[C@H]1Oc1ccc(C#N)c(Cl)c1 (stereo partly drawn) [GT-03427, N-((1r,3r)-3-(3-chloro-4-cyanophenoxy)-2,2,4,4-tetramethylcyclobutyl)-6-(4-((6-(2-(2,6-dioxopiperidin-3-yl)-1,3-dioxoisoindolin-5-yl)-3,6-diazabicyclo[3.1.1]heptan-3-yl)methyl)piperidin-1-yl)nicotinamide]	500 to 1000 nM		100 to 500 nM		1000 to 5000 nM	100 to 500 nM						
